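Exposure lasted 48 hours, with cells grown in 96-well plates and compounds tested at five concentrations. GI50 is the concentration that inhibits growth by half. TGI marks complete inhibition of growth.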
Tests used:
Experiment in all cases: NCI tumour cell line growth inhibition, 48 h
SNB-75 CNS = test system: SNB-75 CNS
HOP-62 NSCLC = test system: HOP-62 NSCLC
MDA-MB-435 = test system: MDA-MB-435
KM12 colon = test system: KM12 colon
EKVX NSCLC = test system: EKVX NSCLC
SR leukemia = test system: SR leukemia
COLO 205 colon = test system: COLO 205 colon
SW-620 colon = test system: SW-620 colon
OVCAR-4 ovarian = test system: OVCAR-4 ovarian
K-562 leukemia = test system: K-562 leukemia
OVCAR-5 ovarian = test system: OVCAR-5 ovarian
PC-3 prostate = test system: PC-3 prostate
A549 NSCLC = test system: A549 NSCLC
HOP-92 NSCLC = test system: HOP-92 NSCLC
HL-60(TB) leukemia = test system: HL-60(TB) leukemia
HS 578T breast = test system: HS 578T breast
OVCAR-3 ovarian = test system: OVCAR-3 ovarian
MALME-3M melanoma = test system: MALME-3M melanoma
BT-549 breast = test system: BT-549 breast
SF-268 CNS = test system: SF-268 CNS
A498 renal = test system: A498 renal
HT29 colon = test system: HT29 colon
SK-OV-3 ovarian = test system: SK-OV-3 ovarian
SF-539 CNS = test system: SF-539 CNS
HCT-116 colon = test system: HCT-116 colon
ACHN renal = test system: ACHN renal
CAKI-1 renal = test system: CAKI-1 renal
NCI-H460 lung = test system: NCI-H460 lung
RPMI-8226 leukemia = test system: RPMI-8226 leukemia
IGROV1 ovarian = test system: IGROV1 ovarian
CCRF-CEM leukemia = test system: CCRF-CEM leukemia
MDA-MB-231 breast = test system: MDA-MB-231 breast
UACC-257 melanoma = test system: UACC-257 melanoma
DU-145 prostate = test system: DU-145 prostate
SN12C renal = test system: SN12C renal
OVCAR-8 ovarian = test system: OVCAR-8 ovarian
NCI-H23 lung = test system: NCI-H23 lung
U251 CNS = test system: U251 CNS
HCT-15 colon = test system: HCT-15 colon
MCF7 breast = test system: MCF7 breast
LOX IMVI melanoma = test system: LOX IMVI melanoma
HCC-2998 colon = test system: HCC-2998 colon
SF-295 CNS = test system: SF-295 CNS
SK-MEL-28 melanoma = test system: SK-MEL-28 melanoma
SK-MEL-5 melanoma = test system: SK-MEL-5 melanoma
T-47D breast = test system: T-47D breast
M14 melanoma = test system: M14 melanoma
NCI-H226 lung = test system: NCI-H226 lung
NCI-H522 lung = test system: NCI-H522 lung
UACC-62 melanoma = test system: UACC-62 melanoma
786-0 renal = test system: 786-0 renal
UO-31 renal = test system: UO-31 renal
SK-MEL-2 melanoma = test system: SK-MEL-2 melanoma
NCI/ADR-RES ovarian = test system: NCI/ADR-RES ovarian
TK-10 renal = test system: TK-10 renal
RXF 393 renal = test system: RXF 393 renal
SNB-19 CNS = test system: SNB-19 CNS

## O=C1OCC(C#Cc2ccccc2)=C1Br
SNB-75 CNS
  GI50: 18.1 µM
  TGI: > 100 µM
HOP-62 NSCLC
  GI50: 13.2 µM
  TGI: 38.2 µM
MDA-MB-435
  GI50: 10.8 µM
  TGI: 48.3 µM
KM12 colon
  GI50: 3.64 µM
  TGI: 15 µM
EKVX NSCLC
  GI50: 17.2 µM
  TGI: 35.5 µM
SR leukemia
  GI50: 0.186 µM
  TGI: > 100 µM
COLO 205 colon
  GI50: 5.35 µM
  TGI: > 54.7 µM
SW-620 colon
  GI50: 1.72 µM
  TGI: 5.75 µM
OVCAR-4 ovarian
  GI50: 7.13 µM
  TGI: 27.7 µM
K-562 leukemia
  GI50: 2.63 µM
  TGI: 11.6 µM
OVCAR-5 ovarian
  GI50: > 100 µM
  TGI: > 100 µM
PC-3 prostate
  GI50: 2.56 µM
  TGI: 12.7 µM
A549 NSCLC
  GI50: 16.7 µM
  TGI: 34.6 µM
HOP-92 NSCLC
  GI50: 3.93 µM
  TGI: 13.4 µM
HL-60(TB) leukemia
  GI50: 0.0201 µM
  TGI: 0.384 µM
HS 578T breast
  GI50: 6.2 µM
  TGI: 19 µM
OVCAR-3 ovarian
  GI50: 1.77 µM
  TGI: 8.9 µM
MALME-3M melanoma
  GI50: 2.18 µM
  TGI: 9.33 µM
BT-549 breast
  GI50: 6.03 µM
  TGI: 27.4 µM
SF-268 CNS
  GI50: 4.76 µM
  TGI: 20.6 µM
A498 renal
  GI50: 19.3 µM
  TGI: 54.5 µM
HT29 colon
  GI50: 7.67 µM
  TGI: 97.4 µM
SK-OV-3 ovarian
  GI50: 52.9 µM
  TGI: > 100 µM
SF-539 CNS
  GI50: 2.42 µM
  TGI: 9.81 µM
HCT-116 colon
  GI50: 0.541 µM
  TGI: > 31.6 µM
ACHN renal
  GI50: 9.34 µM
  TGI: > 43.9 µM
CAKI-1 renal
  GI50: 5.61 µM
  TGI: 13.4 µM
NCI-H460 lung
  GI50: 19.5 µM
  TGI: 48.5 µM
RPMI-8226 leukemia
  GI50: 0.648 µM
  TGI: 3.09 µM
IGROV1 ovarian
  GI50: 4.77 µM
  TGI: 33.5 µM
CCRF-CEM leukemia
  GI50: 1.1 µM
  TGI: 5.58 µM
MDA-MB-231 breast
  GI50: 3.12 µM
  TGI: 14.8 µM
UACC-257 melanoma
  GI50: 8.26 µM
  TGI: 28.2 µM
DU-145 prostate
  GI50: 3.42 µM
  TGI: 13.2 µM
SN12C renal
  GI50: 3.14 µM
  TGI: 14.1 µM
OVCAR-8 ovarian
  GI50: 2.27 µM
  TGI: 7.26 µM
NCI-H23 lung
  GI50: 2.94 µM
  TGI: 9.5 µM
U251 CNS
  GI50: 4.88 µM
  TGI: > 39.3 µM
HCT-15 colon
  GI50: 3.96 µM
  TGI: > 38.4 µM
MCF7 breast
  GI50: 2.69 µM
  TGI: 12.8 µM
LOX IMVI melanoma
  GI50: 3.15 µM
  TGI: > 35.9 µM
HCC-2998 colon
  GI50: 19.3 µM
  TGI: 37.3 µM
SF-295 CNS
  GI50: 17.7 µM
  TGI: 48.8 µM
SK-MEL-28 melanoma
  GI50: 4.75 µM
  TGI: > 100 µM
SK-MEL-5 melanoma
  GI50: 1.82 µM
  TGI: 6.15 µM
T-47D breast
  GI50: 16.3 µM
  TGI: > 67.5 µM
M14 melanoma
  GI50: 2.83 µM
  TGI: 16 µM
NCI-H226 lung
  GI50: 23.1 µM
  TGI: 72 µM
NCI-H522 lung
  GI50: 17.4 µM
  TGI: 49.7 µM
UACC-62 melanoma
  GI50: 10.7 µM
  TGI: 26.1 µM
786-0 renal
  GI50: 2.58 µM
  TGI: 12.5 µM
UO-31 renal
  GI50: 7.66 µM
  TGI: 22.7 µM
SK-MEL-2 melanoma
  GI50: 18.8 µM
  TGI: 52.4 µM
NCI/ADR-RES ovarian
  GI50: 6.25 µM
  TGI: > 63.2 µM
TK-10 renal
  GI50: 0.929 µM
  TGI: 17.1 µM
RXF 393 renal
  GI50: 3.96 µM
  TGI: 31.8 µM
SNB-19 CNS
  GI50: 21.5 µM
  TGI: > 68.8 µM
